Test results: patent US6991809B2, “Particles with improved solubilization capacity” (Lyotropic Therapeutics, Inc., priority 2001, dated 2006)

Assays:
[1] = Solubilizing paclitaxel in GRAS essential oils; assay type: physicochemical
[2] = Solubility of paclitaxel in eugenol and in egg phosphatidylcholine/eugenol/water mixture; assay type: physicochemical
From the text: The solubility of a given active in a mixture of hydrophobe and lipid is typically a very strongly increasing function of an increasing hydrophobe:lipid ratio, because the hydrophobe can generally be chosen specifically for its ability to solubilize the particular active whereas the choice of lipid has much more to do with its ability to form liquid crystals (in the presence of the hydrophobe, in particular).

Question: Which “Paclitaxel solubility (w/w, approx)” value ([1]; in essential oil: Oil of bay) does the source give for `CC(=O)O[C@H]1C(=O)[C@@]2(C)[C@H]([C@H](OC(=O)c3ccccc3)[C@]3(O)C[C@H](OC(=O)[C@H](O)[C@@H](NC(=O)c4ccccc4)c4ccccc4)C(C)=C1C3(C)C)[C@]1(OC(C)=O)CO[C@@H]1C[C@@H]2O` [Paclitaxel] here?
Answer: The value was about 16% w/w.

Question: And the “Paclitaxel solubility (w/w, approx)” value ([1]; in essential oil: Sweet basil)?
Answer: The value was about 7% w/w.

Question: What about the “Paclitaxel solubility (w/w, approx)” value ([1]; in essential oil: Thyme) of the same compound?
Answer: The value was about 10% w/w.

Question: What about the “solubility in lipid/eugenol/water mixture” value ([2]; in a mixture of 42% egg phosphatidylcholine, 35% eugenol, and 23% water) of the same compound?
Answer: Its value is “less than 1.5%”.

Question: And the solubility in eugenol ([2]; in eugenol)?
Answer: The solubility in eugenol was “over 15 % by weight”.
